Laboratory results as given in US20080153792A1, “Drug Identification and Treatment Method” (priority 2006, published 2008).

Columns and labels:
[1] = system: osteoblasts and osteocytes in murine vertebral bone; assay: osteoblast and osteocyte apoptosis in ovariectomized mice (TUNEL); assay type: in vivo, mouse; details: ovariectomized Swiss Webster mice
Text: The degree of apoptosis of osteoblasts and osteocytes in murine vertebral bone as a function of estrogen deficiency was examined. Swiss Webster mice (four months old) were ovariectomized. Twenty-eight days later, the animals were sacrificed, vertebrae were isolated, fixed and embedded, and then undecalcified in methacrylate.

[2] = system: mice given a lethal amount of LPS; assay: lethal shock protocol, lethal amount of bacterial LPS; assay type: in vivo, mouse; details: for survival 72 hours after LPS: first protocol
Description: Treatment of lethal inflammation/shock. Two compounds, 16α-bromoepiandrosterone (3β-hydroxy-16α-bromoandrostane-17-one) and 3β,16α-dihydroxy-17-oxoandrostane, were used in a lethal shock protocol. In one protocol, 3 mg of 16α-bromoepiandrosterone was administered to one group of animals by oral gavage, while another group received 3 mg of 16α-bromoepiandrosterone by subcutaneous injection. A group of control animals received a placebo control. In this protocol, the 16α-bromoepiandrosterone was administered to mice at 24 hours before and at 1 hour after administration of a lethal amount of bacterial lipopolysaccharide (LPS). By the end of the observation period, 72 hours after LPS administration, none of the vehicle treated placebo control animals had survived, while 65% of animals that received 16α-bromoepiandrosterone by oral administration survived. 50% of the animals that received 16α-bromoepiandrosterone by subcutaneous injection survived. Animals that survived for 72 hours all recovered from the LPS exposure.
In a second assay, 16α-bromoepiandrosterone or 3β,16α-dihydroxy-17-oxoandrostane was administered to mice by oral gavage at 24 hours before and 1 hour after administration of a lethal amount of LPS. A vehicle treated group of animals was used as the placebo control.

[3] = system: CD4^+CD25^+ T regulatory cells; assay: CD4+CD25+ T regulatory cells after adoptive transfer of CD4+CD25- T cells; assay type: in vivo, mouse; details: 1 mg/animal/day s.c. for 14 days
Description: Inhibition of the generation of CD4^+CD25^+ T regulatory cells or their activity in vivo. Purified CD4^+CD25^− T cells (5×10^6 cells) from congenic B6.5JL mice (CD45.1) per group were adoptively transferred into each of five B6 mice (CD45.2). The purified CD4^+CD25^− T cells were obtained by fluorescence activated cell sorting (FACS) of the donor cells at least twice. Vehicle (0.1% carboxymethylcellulose, 0.9% saline, 2% tween 80, 0.05% phenol) or 16α-bromoepiandrosterone in vehicle (1 mg/animal/day in 100 μL vehicle) was injected subcutaneously before transfer of the cells from the CD45.1 donor animals and the injections were continued daily for 14 days. Thymus, lymph nodes and spleens were collected from the animals at day 15. Samples of thymus, lymph node and spleen were obtained from individuals, and the cells were labeled with fluorescent antibody that bound to CD4, CD25, CD103 or Foxp3. The cells were then analyzed by flow cytometry to enumerate the numbers of the various cell types. The remainder of cells from lymph nodes and spleen of each treatment group were pooled, pre-enriched for CD4^+CD25^+ cells and then analyzed for CD4^+CD25^+ that arose from the host (endogenous CD45.2 cells) and from donor cells (CD45.1 cells that converted from the CD4^+CD25^− donor phenotype to the CD4^+CD25^+ phenotype after residing in vivo for 15 days). The cells were analyzed by cell sorter. To test for regulatory function, varying numbers of purified converted CD45.1 or endogenous CD45.2 CD4^+CD25^+ cells were co-cultured with 2000 CD4^+CD25^− responder cells, 1×10^5 irradiated spleen cells as antigen presenting cells, and […] of anti-CD3 antibody. Fresh CD4^+CD25^+ cells were used as controls. Proliferation was determined by measurement of ^3H-thymidine uptake 4 days after initiation of culture.

[4] = system: γ-interferon production by human whole blood; assay: γ-interferon production in human whole blood exposed to LPS; assay type: cell-based; details: LPS 24 hours; 16α-bromoepiandrosterone at 100 ng/mL
Description: Anti-inflammation activity in human cells in vitro. […] The amount of γ-interferon was measured in the growth medium when the cells had been incubated in the presence of LPS for 24 hours.

[5] = system: Pseudomonas aeruginosa; assay: clearance of chronic lung infection in CFTR mice; assay type: in vivo; details: 40 mg/kg; day 10; p=<0.04 vs vehicle
Description: Clearance of bacteria from lung tissue. The capacity of 16α-bromoepiandrosterone to clear a Pseudomonas aeruginosa infection from lung tissue was shown using a previously published protocol, A. van Heeckeren et al., J. Clin. Invest., 100(11):2810-2815 […]; A. van Heeckeren et al., Am. J. Respir. Crit. Care Med., 161:271-279 2000. The protocol was conducted in CFTR mice, which are used as an animal model for human cystic fibrosis, S. D. Freedman et al., Proc. Natl. Acad. Sci. USA, 96(24):13995-14000 1999; W. Zeng et al., Am. J. Physiol. Cell. Physiol. […] Establishment of chronic P. aeruginosa infection using agarose beads containing bacteria (50 μL containing about 6.1×10^4 CFU/animal) was published earlier, J. R. Starke et al., Pediatr. Res., 22:698-702 1987. Two groups of mice (n=9 for each group) were treated with 40 mg/kg of 16α-bromoepiandrosterone or vehicle (control) and the bacterial burden in the lungs of the animals was determined at 10 days after introduction of the agarose beads into the lung.

[6] = system: NF-κB; assay: NF-κB-bla THP-1 β-lactamase reporter assay; assay type: cell-based, human
[7] = system: mice, LPS induced lung injury; assay: lung injury by sublethal LPS to trachea and lungs, BAL cell count; assay type: in vivo, mouse; details: oral gavage 24 h before and 1 h after 100 μg LPS; 48 hours
Description: In another assay, the capacity of 16α-bromoepiandrosterone and 3β,16α-dihydroxy-17-oxoandrostane to protect against lung injury induced by exposure to a sublethal amount of LPS in mice was shown. In this assay, the compounds, sterile saline (negative control) or vehicle (vehicle control) were administered to groups of 5 mice by oral gavage at 24 hours before and 1 hour after administration of 100 μg of LPS to the trachea and lungs of animals under light anesthesia. At 48 hours the animals were sacrificed and samples were obtained from the lungs of the animals by bronchiolar alveolar lavage (BAL). The numbers of cells in the BAL fluid were counted, with high numbers of cells showing lung inflammation and damage. In this assay, cells that mediate inflammation and lung damage infiltrate into the lungs in response to the presence of the LPS. In the negative control and vehicle control groups, the BAL fluid contained about 6×10^7 cells/mL. […] Other compounds, e.g., 17α-ethynylandrost-5-ene-3β,7β,17β-triol or 17β-aminoandrost-5-ene-3β-ol, can be characterized in a similar manner.

[8] = system: female SJL mice, EAE; assay: experimental autoimmune encephalomyelitis (EAE), PLP-induced, Example 23; assay type: in vivo, mouse; details: 0.1 mg q.d. po from clinical onset
[9] = metabolic stability in liver microsomes: mouse; details: 10 min
Description: (§1) The protocol was performed as follows. […] (2) Set up samples as follows. […] (4) The internal standard/acetonitrile solution.

[10] = system: MG-63 cells; assay: reversal of glucocorticoid effects in MG-63 osteosarcoma cells; assay type: cell-based, human; details: 10 nM compound
[11] = other protocols: degree of sulfation and glucuronidation
[12] = metabolic stability in liver microsomes: human; details: 10 min
Description: as §1

[13] = system: NF-κB in spleen cells of ICR mice; assay: activated NF-κB in spleen cell nuclei after LPS, Example 8; assay type: in vivo, mouse; details: about 40 mg/kg i.p. 24 h before and 1 h after LPS; spleens 1.5 hours after LPS
Description: The capacity of selected compounds to treat LPS induced shock/inflammation in mice was examined by a protocol similar to the protocol described above. Five groups of three ICR mice weighing about 30 g were each treated by intraperitoneal injection with 120 μL vehicle (30% sulfobutylether-cyclodextrin in water), androst-5-ene-3α,7β,16α,17β-tetrol in vehicle, androst-5-ene-3β,4β,16α,17β-tetrol in vehicle or 4β-acetoxyandrost-5-ene-3β,16α,17β-triol in vehicle. All drug and vehicle formulations were solutions, not suspensions. The sulfobutylether-cyclodextrin was obtained commercially (Captisol™, www.cyclexinc.com). There were two vehicle control groups one group received vehicle alone and the other received vehicle plus LPS. […] Drug was administered at about 40 mg/kg (1.2 mg drug/animal for each administration of the drugs). Spleens were harvested from the animals at 1.5 hours after injection of LPS and spleen cells were lysed and assayed for activated NF-κB by isolating nuclei from spleen cells and measuring NF-κB from the lysed nuclei. […] The level of activated NF-κB in spleen cells from the animals that were treated with vehicle and no LPS, was essentially the same as the activated NF-κB in spleen cells from drug treated animals.

[14] = system: CF-1 mice, hemorrhagic shock; assay: hemorrhagic shock and ischemia with abdominal surgery; assay type: in vivo, mouse; details: 2 mg in resuscitation fluid; vehicle control 1/15
Description: The effect of compounds on hemorrhagic shock and ischemia was examined in another protocol. CF-1 mice at an age of 6-8 months were anesthetized using methoxyfluorothane and prepared for abdominal surgery. Each mouse was tested for the level of respiration, eye blink response and response to a skin pinch to ensure a level of anesthesia appropriate for surgery. The duration of abdominal surgery was approximately two hours, during which time 35-40% of the animal's blood volume is removed over a […]. The removal of blood in a controlled manner simulates the effect of hemorrhagic shock. A slow intravenous infusion of the removed blood and a 2× volume of resuscitation fluid (lactated Ringers solution) into a central vein was made. The resuscitation fluid was supplemented with either 2 mg dehydroepiandrosterone-3β-sulfate or the excipient as a placebo. The peritoneum and overlying skin were sutured separately. Animals were maintained at 38°-39° C. until recovery is complete. Under these conditions, most of the placebo-treated animals died within 24-48 hours. […] Mesenteric lymph nodes (MLN) were removed and cultured on blood agar plates and the number of CFUs counted following culturing. The liver was removed and the amount malondialdehyde was measured.

In the case of C[C@]12CC[C@H]3[C@@H](CCC4=C[C@H](O)CC[C@@H]43)[C@@H]1CC[C@@H]2O [4-estrene-3α,17β-diol], the “osteoblast and osteocyte apoptosis” value [1] is reported as “reduce apoptosis”.

In the case of C[C@]12CC[C@H](O)C[C@@H]1CC[C@@H]1[C@@H]2CC[C@]2(C)C(=O)[C@H](Br)C[C@@H]12 [16α-bromoepiandrosterone], the “survival 72 hours after LPS” value ([2]; 3 mg by oral gavage 24 h before and 1 h after LPS) is reported as 65%, the “survival 72 hours after LPS” value ([2]; 3 mg by subcutaneous injection 24 h before and 1 h after LPS) is reported as 50% and the “survival at 72 hours” value ([2]; second assay, oral gavage 24 h before and 1 h after LPS) is reported as 80%. For the same molecule, the “average donor CD45.1 CD4^+CD25^+ cell number in spleens” value ([3]; day 15, vehicle 1.97×10^5) was 0.62×10^5 cells, the “average endogenous CD45.2 CD4^+CD25^+ cells in the thymus” value ([3]; day 15, vehicle 3.10×10^5) was 1.59×10^5 and the “average endogenous CD45.2 CD4^+CD25^+ cell number in spleens” value ([3]; day 15, vehicle 9.54×10^6) was 5.49×10^6 cells. The “proportion of endogenous CD45.2 CD4^+CD25^+CD103^+ Treg cells in spleens” value ([3]; vehicle 13.85%) was 13.40%, the “average of donor CD45.1 CD4^+CD25^+CD103^+ cells of total donor CD4^+CD25^+ cells in spleens” value ([3]; vehicle 29.06%) was 9.63% and the “production of γ-interferon” value [4] was “Reduced production”. For the same molecule, the “bacterial burden in the lungs” value [5] was “reduced”, the “maximum NF-κB inhibition” value ([6]; this protocol) was 100% and the “cell counts in the BAL fluid” value [7] was “about 4.4×10^7 cells/mL”.

In the case of C[C@]12CC[C@H]3[C@@H]([C@@H](O)C=C4C[C@H](O)CC[C@@]43C)[C@@H]1C[C@@H](O)[C@@H]2O [androst-5-ene-3α,7β,16α,17β-tetrol], the “course of EAE compared to vehicle-treated mice” value [8] is reported as “very similar to that observed in the vehicle-treated mice”, the “parent remaining mouse microsomes” value [9] is reported as 100% (10 min) and the “osteoprotegerin levels in the presence of 30 nM dexamethasone” value [10] is reported as “normal osteoprotegerin levels”. The “degree of sulfation and degree of glucuronidation compared to diols” value [11] was “low”, the “parent remaining human microsomes” value [12] was 100% (10 min) and the “decrease of NF-κB activation compared to LPS+vehicle control group” value [13] was “about 50%”.

Molecule C[C@]12CC[C@H]3[C@@H](CCC4C[C@H](O)[C@@H](O)C[C@@]43C)[C@@H]1C[C@@H](O)[C@@H]2O (stereo partly drawn) [androstane-2β,3α,16α,17β-tetrol] has a melting point of 260 to 263 °C and an IC50 ([6]; Homo sapiens, THP-1, read-out: IC50, this protocol) of over 10 µM.

In the case of C[C@]12CC[C@H](OS(=O)(=O)O)CC1=CC[C@@H]1[C@@H]2CC[C@]2(C)C(=O)CC[C@@H]12 [dehydroepiandrosterone-3β-sulfate], the survival [14] is reported as 15/15.
